Paper PMC3079579, “Solution Structure of a Repeated Unit of the ABA-1 Nematode Polyprotein Allergen of Ascaris Reveals a Novel Fold and Two Discrete Lipid-Binding Sites” (PLoS Neglected Tropical Diseases, 2011)
pKd: −log10 of the molar value.

Columns and labels:
[1] = biological target: T1, ABA-1A (rABA-1A, RP-ABA-1A; As-NPA-1A) (Ascaris suum, UniProt Q06811); assay: fluorescence blue-shift of probe; format: binding; conditions: PBS pH 7.3, 25 °C, data not shown
[2] = biological target: T1, ABA-1A (rABA-1A, RP-ABA-1A; As-NPA-1A); assay: fluorescence titration (probe enhancement, […] nm); format: binding

T1 sequence (Q06811 534-662): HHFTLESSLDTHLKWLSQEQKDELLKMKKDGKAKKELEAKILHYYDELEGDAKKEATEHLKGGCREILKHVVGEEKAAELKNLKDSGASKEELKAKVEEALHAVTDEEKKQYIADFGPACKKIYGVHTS

Compound	fluorescence blue-shift of probe [1]	pKd [2]
CCCCCCC(NS(=O)(=O)c1cccc2c(N(C)C)cccc12)C(=O)O (racemic) [DACA, dansyl-α-aminooctanoic acid]	A similar blue-shift (data not shown) was observed using dansyl-DL-α-caprylic acid (DACA)	
CN(C)c1cccc2c(S(=O)(=O)NCCCCCCCCCCC(=O)O)cccc12 [DAUDA, 11-(((5-(dimethylamino)-1-napthalenyl)sulfonyl)amino)undecanoic acid]		6.96
